Measurements from US20250296971A1, “GASTRIC INHIBITORY PEPTIDE RECEPTOR LIGANDS” (priority 2021, published 2025).
*1 amine or outer side, *2 acyl side, *3 side chain or, on linkers, in order; H or OH if unused. Where a SMILES comes first, the peptide text is derived from it. Bridges are numbered along the chain shown (N, C = ends). [ ]: non-standard residue; d: D form. The star is where a group is joined. X14 = NC(=O)[C@H](CCCCNC(=O)CN1CCN2CCN3CCN(CC1)CC(=O)[O][In]([O]C(=O)C2)[O]C(=O)C3)NC(=O)CCC(=O)NCCCOCCOCCOCCCN*; X16 = NC(=O)[C@H](CCCCNC(=O)CN1CCN2CCN3CCN(CC1)CC(=O)[O][Lu]([O]C(=O)C2)[O]C(=O)C3)NC(=O)CCC(=O)NCCCOCCOCCOCCCN*; X13 = O=C(CN1CCN2CCN3CCN(CC1)CC(=O)[O][Lu]([O]C(=O)C2)[O]C(=O)C3)NCCCOCCOCCOCCCN*; DOTA(In) = O=C1CN2CCN3CCN(CC(=O)*)CCN(CC2)CC(=O)[O][In]([O]1)[O]C(=O)C3; DOTA(Lu) = O=C1CN2CCN3CCN(CC(=O)*)CCN(CC2)CC(=O)[O][Lu]([O]1)[O]C(=O)C3; Trp(5-Cl) = N[C@@H](Cc1c[nH]c2ccc(Cl)cc12)C(=O)O; Pyridine(2,6-diCH2) = c1cc(C[*:1])nc(C[*:2])c1; 1Nal = N[C@@H](Cc1cccc2ccccc12)C(=O)O; mXylylene = c1cc(C[*:1])cc(C[*:2])c1; X6 = c1cc(CSCCN[*:2])nc(C[*:1])c1; X7 = c1cc(CSCCN[*:2])cc(C[*:1])c1; Hyp = O=C(O)[C@@H]1C[C@@H](O)CN1; X1 = O=C(CN1CCC(N[*:1])CC1)[*:2]; Suc = O=C(CCC(=O)[*:2])[*:1]; Ac6c = NC1(C(=O)O)CCCCC1; Api = NC1(C(=O)O)CCNCC1; Thp = NC1(C(=O)O)CCOCC1; Aib = CC(C)(N)C(=O)O; Sar = CNCC(=O)O

Target: T1, GIPR (CHO-K1-hGIPR cells) (Homo sapiens, UniProt P48546)
T1 construct: host or cells: CHO-K1
T1 sequence (P48546 22-466): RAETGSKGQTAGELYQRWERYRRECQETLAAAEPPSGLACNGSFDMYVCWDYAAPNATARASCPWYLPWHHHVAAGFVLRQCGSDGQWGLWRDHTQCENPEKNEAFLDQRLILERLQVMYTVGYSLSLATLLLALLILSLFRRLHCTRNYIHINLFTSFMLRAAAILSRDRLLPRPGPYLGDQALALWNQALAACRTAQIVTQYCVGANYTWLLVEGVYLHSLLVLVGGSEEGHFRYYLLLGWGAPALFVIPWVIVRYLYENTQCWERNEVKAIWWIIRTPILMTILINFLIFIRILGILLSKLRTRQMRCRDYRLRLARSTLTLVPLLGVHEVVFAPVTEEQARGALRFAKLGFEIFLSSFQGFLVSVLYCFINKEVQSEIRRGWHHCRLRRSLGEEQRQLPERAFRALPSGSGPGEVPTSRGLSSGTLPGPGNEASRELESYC
Experiment: FACS binding assay
Settings: competition with 20 nM GIP-057, 4° C., 1 hour, read-out: pIC50 Category (converted)
Summary of the method: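 Read-out: flow cytometric median fluorescence intensity, APC/Cy5 channel, plotted vs peptide conc.; 4PL fit → EC50/pEC50 or IC50/pIC50. Cells: CHO-K1-hGIPR, Accutase-detached, 500.000/mL in PBS + 1% FCS. Detection: APC-streptavidin 1 μg/mL, 30 min, on ice.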

Row | SMILES | IC50 [nM]
1 | CC[C@H](C)[C@@H]1NC(=O)[C@H](CC(C)C)NC(=O)C(C)(C)NC(=O)[C@@H](NC(=O)[C@@H](CC(C)C)NC(=O)[C@H](CCC(=O)O)NC(=O)[C@@H]2CCCN2C(=O)[C@H](Cc2c[nH]c3ccc(Cl)cc23)NC(=O)[C@H](Cc2c[nH]c3ccccc23)NC(=O)[C@H](CC(=O)O)NC(C)=O)CSCc2cccc(c2)CSC[C@@H](C(=O)NCCCOCCOCCOCCCNC(=O)CCC(=O)N[C@@H](CCCCNC(=O)CN2CCN3CCN4CCN(CC2)CC(=O)[O][In]([O]C(=O)C3)[O]C(=O)C4)C(N)=O)NC1=O [GIP-164, Ac-Asp-Trp-5Clw-Pro-Glu-leu-[Cys(3MeBn)-Aib-Leu-Ile-Cys]-Ttds-Lys(InDOTA)-NH2] (Ac-DW[Trp(5-Cl)]PE[dL]C[Aib]LIC-X14; linker 7-11 via mXylylene) | < 10
2 | CC[C@H](C)[C@@H]1NC(=O)[C@H](CC(C)C)NC(=O)C(C)(C)NC(=O)[C@@H](NC(=O)[C@@H](CC(C)C)NC(=O)[C@H](CCC(=O)O)NC(=O)[C@@H]2CCCN2C(=O)[C@H](Cc2cccc3ccccc23)NC(=O)[C@H](Cc2c[nH]c3ccccc23)NC(=O)[C@H](CC(=O)O)NC(C)=O)CSCc2cccc(c2)CSC[C@@H](C(=O)NCCCOCCOCCOCCCNC(=O)CCC(=O)N[C@@H](CCCCNC(=O)CN2CCN3CCN4CCN(CC2)CC(=O)[O][In]([O]C(=O)C3)[O]C(=O)C4)C(N)=O)NC1=O [GIP-165, Ac-Asp-Trp-1Ni-Pro-Glu-leu-[Cys(3MeBn)-Aib-Leu-Ile-Cys]-Ttds-Lys(InDOTA)-NH2] (Ac-DW[1Nal]PE[dL]C[Aib]LIC-X14; linker 7-11 via mXylylene) | < 10
3 | CC[C@H](C)[C@@H]1NC(=O)[C@H](CC(C)C)NC(=O)C2(CCCCC2)NC(=O)[C@@H](NC(=O)[C@@H](CC(C)C)NC(=O)[C@H](CCC(=O)O)NC(=O)[C@@H]2CCCN2C(=O)[C@H](Cc2cccc3ccccc23)NC(=O)[C@H](Cc2c[nH]c3ccccc23)NC(=O)[C@H](CC(=O)O)NC(C)=O)CSCc2cccc(c2)CSC[C@@H](C(=O)NCCCOCCOCCOCCCNC(=O)CCC(=O)N[C@@H](CCCCNC(=O)CN2CCN3CCN4CCN(CC2)CC(=O)[O][In]([O]C(=O)C3)[O]C(=O)C4)C(N)=O)NC1=O [GIP-166, Ac-Asp-Trp-1Ni-Pro-Glu-leu-[Cys(3MeBn)-Egz-Leu-Ile-Cys]-Ttds-Lys(InDOTA)-NH2] (Ac-DW[1Nal]PE[dL]C[Ac6c]LIC-X14; linker 7-11 via mXylylene) | < 10
4 | CC[C@H](C)[C@@H]1NC(=O)[C@H](CC(C)C)NC(=O)C2(CCOCC2)NC(=O)[C@@H](NC(=O)[C@@H](CC(C)C)NC(=O)[C@H](CCC(=O)O)NC(=O)[C@@H]2C[C@@H](O)CN2C(=O)[C@H](Cc2c[nH]c3ccc(Cl)cc23)NC(=O)[C@H](Cc2c[nH]c3ccccc23)NC(=O)CCC(=O)O)CSCc2cccc(n2)CSC[C@@H](C(=O)NC2CCN(CC(=O)N[C@@H](CCCCNC(=O)CN3CCN4CCN5CCN(CC3)CC(=O)[O][In]([O]C(=O)C4)[O]C(=O)C5)C(N)=O)CC2)NC1=O [GIP-168, HO-Succinyl-Trp-5Clw-Hyp-Glu-leu-[Cys(2Lut)-Thp-Leu-Ile-Cys]-APAc-Lys(InDOTA)-NH2] (Suc-W[Trp(5-Cl)][Hyp]E[dL]C[Thp]LIC[X1]K(DOTA(In))-NH2; linker 6-10 via Pyridine(2,6-diCH2)) | < 10

Same assay, conditions: pIC50 Category, competition with 20 nM GIP-057, 4° C., 1 hour

Row | SMILES | IC50 [nM]
5 | CC[C@H](C)[C@@H]1NC(=O)[C@H](CC(C)C)NC(=O)C(C)(C)NC(=O)[C@@H](NC(=O)[C@@H](CC(C)C)NC(=O)[C@H](CCC(=O)O)NC(=O)[C@@H]2C[C@@H](O)CN2C(=O)[C@H](Cc2c[nH]c3ccc(Cl)cc23)NC(=O)[C@H](Cc2c[nH]c3ccccc23)NC(=O)[C@H](CC(=O)O)NC(=O)CCC(=O)NCCCOCCOCCOCCCNC(=O)CN2CCN3CCN4CCN(CC2)CC(=O)[O][Lu]([O]C(=O)C3)[O]C(=O)C4)CSCc2cccc(c2)CSCCNC1=O [GIP-159, LuDOTA-Ttds-Asp-Trp-5Clw-Hyp-Glu-leu-[Cys(3MeBn)-Aib-Leu-Ile-AET]] ({X13-Suc}-DW[Trp(5-Cl)][Hyp]E[dL]C[Aib]LI; linker 7-C via X7) | < 10
6 | CC[C@H](C)[C@@H]1NC(=O)[C@H](CC(C)C)NC(=O)C(C)(C)NC(=O)[C@@H](NC(=O)[C@@H](CC(C)C)NC(=O)[C@H](CCC(=O)O)NC(=O)CN(C)C(=O)[C@H](Cc2c[nH]c3ccc(Cl)cc23)NC(=O)[C@H](Cc2c[nH]c3ccccc23)NC(=O)[C@H](CC(=O)O)NC(=O)CCC(=O)NCCCOCCOCCOCCCNC(=O)CN2CCN3CCN4CCN(CC2)CC(=O)[O][Lu]([O]C(=O)C3)[O]C(=O)C4)CSCc2cccc(c2)CSCCNC1=O [GIP-160, LuDOTA-Ttds-Asp-Trp-5Clw-Nmg-Glu-leu-[Cys(3MeBn)-Aib-Leu-Ile-AET]] ({X13-Suc}-DW[Trp(5-Cl)][Sar]E[dL]C[Aib]LI; linker 7-C via X7) | < 10
7 | CC[C@H](C)[C@@H]1NC(=O)[C@H](CC(C)C)NC(=O)C(C)(C)NC(=O)[C@@H](NC(=O)[C@@H](CC(C)C)NC(=O)[C@H](CCC(=O)O)NC(=O)[C@@H]2CCCN2C(=O)[C@H](Cc2c[nH]c3ccc(Cl)cc23)NC(=O)[C@H](Cc2c[nH]c3ccccc23)NC(=O)[C@H](CC(=O)O)NC(=O)CN2CCC(NC(=O)CN3CCN4CCN5CCN(CC3)CC(=O)[O][Lu]([O]C(=O)C4)[O]C(=O)C5)CC2)CSCc2cccc(c2)CSCCNC1=O [GIP-161, LuDOTA-APAc-Asp-Trp-5Clw-Pro-Glu-leu-[Cys(3MeBn)-Aib-Leu-Ile-AET]] ({DOTA(Lu)}-[X1]DW[Trp(5-Cl)]PE[dL]C[Aib]LI; linker 8-C via X7) | < 10
8 | CC[C@H](C)[C@@H]1NC(=O)[C@H](CC(C)C)NC(=O)C2(CCOCC2)NC(=O)[C@@H](NC(=O)[C@@H](CC(C)C)NC(=O)[C@H](CCC(=O)O)NC(=O)[C@@H]2C[C@@H](O)CN2C(=O)[C@H](Cc2c[nH]c3ccc(Cl)cc23)NC(=O)[C@H](Cc2c[nH]c3ccccc23)NC(=O)[C@H](CC(=O)O)NC(=O)CN2CCC(NC(=O)CN3CCN4CCN5CCN(CC3)CC(=O)[O][Lu]([O]C(=O)C4)[O]C(=O)C5)CC2)CSCc2cccc(n2)CSCCNC1=O [GIP-162, LuDOTA-APAc-Asp-Trp-5Clw-Hyp-Glu-leu-[Cys(2Lut)-Thp-Leu-Ile-AET]] ({DOTA(Lu)}-[X1]DW[Trp(5-Cl)][Hyp]E[dL]C[Thp]LI; linker 8-C via X6) | < 10
9 | CC[C@H](C)[C@@H]1NC(=O)[C@H](CC(C)C)NC(=O)C(C)(C)NC(=O)[C@@H](NC(=O)[C@@H](CC(C)C)NC(=O)[C@H](CCC(=O)O)NC(=O)[C@@H]2CCCN2C(=O)[C@H](Cc2c[nH]c3ccc(Cl)cc23)NC(=O)[C@H](Cc2c[nH]c3ccccc23)NC(=O)[C@H](CC(=O)O)NC(=O)CCC(=O)NCCCOCCOCCOCCCNC(=O)CN2CCN3CCN4CCN(CC2)CC(=O)[O][Lu]([O]C(=O)C3)[O]C(=O)C4)CSCc2cccc(n2)CSCCNC1=O [GIP-163, LuDOTA-Ttds-Asp-Trp-5Clw-Pro-Glu-leu-[Cys(2Lut)-Aib-Leu-Ile-AET]] ({X13-Suc}-DW[Trp(5-Cl)]PE[dL]C[Aib]LI; linker 7-C via X6) | < 10
10 | CC[C@H](C)[C@@H]1NC(=O)[C@H](CC(C)C)NC(=O)C2(CCOCC2)NC(=O)[C@@H](NC(=O)[C@@H](CC(C)C)NC(=O)[C@H](CCC(=O)O)NC(=O)[C@@H]2C[C@@H](O)CN2C(=O)[C@H](Cc2c[nH]c3ccc(Cl)cc23)NC(=O)[C@H](Cc2c[nH]c3ccccc23)NC(=O)CCC(=O)O)CSCc2cccc(n2)CSC[C@@H](C(=O)NC2CCN(CC(=O)N[C@@H](CCCCNC(=O)CN3CCN4CCN5CCN(CC3)CC(=O)[O][Lu]([O]C(=O)C4)[O]C(=O)C5)C(N)=O)CC2)NC1=O [GIP-170, HO-Succinyl-Trp-5Clw-Hyp-Glu-leu-[Cys(2Lut)-Thp-Leu-Ile-Cys]-APAc-Lys(LuDOTA)-NH2] (Suc-W[Trp(5-Cl)][Hyp]E[dL]C[Thp]LIC[X1]K(DOTA(Lu))-NH2; linker 6-10 via Pyridine(2,6-diCH2)) | < 10
11 | CC[C@H](C)[C@@H]1NC(=O)[C@H](CC(C)C)NC(=O)C2(CCN(C(=O)CN3CCN4CCN5CCN(CC3)CC(=O)[O][Lu]([O]C(=O)C5)[O]C(=O)C4)CC2)NC(=O)[C@@H](NC(=O)[C@@H](CC(C)C)NC(=O)[C@H](CCC(=O)O)NC(=O)[C@@H]2C[C@@H](O)CN2C(=O)[C@H](Cc2c[nH]c3ccc(Cl)cc23)NC(=O)[C@H](Cc2c[nH]c3ccccc23)NC(=O)CCC(=O)O)CSCc2cccc(n2)CSCCNC1=O [GIP-171, HO-Succinyl-Trp-5Clw-Hyp-Glu-leu-[Cys(2Lut)-Apc(LuDOTA)-Leu-Ile-AET]] (Suc-W[Trp(5-Cl)][Hyp]E[dL]C[Api](DOTA(Lu))LI; linker 6-C via X6) | < 10
12 | CC[C@H](C)[C@@H]1NC(=O)[C@H](CC(C)C)NC(=O)C(C)(C)NC(=O)[C@@H](NC(=O)[C@@H](CC(C)C)NC(=O)[C@H](CCC(=O)O)NC(=O)[C@@H]2CCCN2C(=O)[C@H](Cc2cccc3ccccc23)NC(=O)[C@H](Cc2c[nH]c3ccccc23)NC(=O)[C@H](CC(=O)O)NC(C)=O)CSCc2cccc(c2)CSC[C@@H](C(=O)NCCCOCCOCCOCCCNC(=O)CCC(=O)N[C@@H](CCCCNC(=O)CN2CCN3CCN4CCN(CC2)CC(=O)[O][Lu]([O]C(=O)C3)[O]C(=O)C4)C(N)=O)NC1=O [GIP-172, Ac-Asp-Trp-1Ni-Pro-Glu-leu-[Cys(3MeBn)-Aib-Leu-Ile-Cys]-Ttds-Lys(LuDOTA)-NH2] (Ac-DW[1Nal]PE[dL]C[Aib]LIC-X16; linker 7-11 via mXylylene) | 10 to 79.4
